# Where “and” joins values, the source holds several entries; their conditions need not be identical. Equal entries are not always repeated. Where two headings read alike, the source gives them in different places.
# Assays:
# Assay type in all cases: cell-based
# in vitro = details: human
# Procedure: (§1) HEK293 cells and the human hepatocellular carcinoma cells (HepG2) were routinely cultured in 75-cm^2 culture flasks (Corning Incorporated) on high-glucose Dulbecco’s modified Eagle medium (DMEM) containing glutaMax and phenol red (Gibco) supplemented with 1% penicillin/streptomycin (Gibco) and 10% fetal bovine serum (FBS) (Gibco). Cells were maintained at 37°C and 5% CO2.
# (§2) Cytotoxicity assays with HEK293 and HepG2 cells were performed in 96-well plates seeded with 5 × 10^4 cells/well and incubated for 24 hours to reach 80%–90% confluency. Exterior wells were filled with only medium to prevent evaporation. Culture medium was removed from the cells, and 100 µL of exposure medium [high-glucose DMEM without phenol red (Gibco)] was added to avoid a potential interaction between FBS components or antibiotics and tested compounds. A twofold dilution series of compounds in exposure medium (range 100–3.2 μg/mL) was made in a separate 96-well plate, and 100 µL of each of these dilutions was added to the assay plates for 24 hours at 37°C in the presence of 5% CO2. Control wells contained cells with DMEM, DMEM + 1% DMSO (vehicle control), or DMEM + 20% DMSO. Wells without cells were also included as negative control. After exposure, the medium was replaced with 100 µL 10% Alamar Blue (Invitrogen) in exposure medium. After 45 min incubation at 37°C and 5% CO2, fluorescence was measured on a Spectramax M5 plate reader at λex = 541 nm, λem = 590 nm. Cell viability compared with the vehicle control was calculated, and inhibition curves for each compound were fitted (non-linear curve fit, four variables, bottom constrained = 0) in Prism 9 (GraphPad Software, San Diego, USA).
# HEK293 cells = experiment: in vitro; details: for Selectivity Index: LC50/MIC (HEK293 / S. aureus); for LC20: human, 24 h
# Procedure: as §1, §2
# [1] = tested on: Enterococcus faecium vanA (strain E1654); experiment: MIC (microdilution) against E. faecium; details: for MIC: Enterococcus faecium, read-out: MIC E. faecium; for MIC E. faecium: Table ST1
# Procedure: (§3) Staphylococcus aureus str. Newman, Enterococcus faecalis vanA (strain E0155), Enterococcus faecium vanA (strain E1654), Escherichia coli ATCC 25922, Escherichia coli D21f2 with a truncated LPS barrier, Escherichia coli JW5503 (ΔtolC) ([49]), Pseudomonas aeruginosa ATCC 27853, and Pasteurella haemolytica ATCC 29701 were grown in Mueller-Hinton Broth (MHB) (Oxoid, Basingstoke, UK) and incubated at 37°C.
# (§4) The minimal inhibitory concentration was determined using the microdilution method following the guidelines of the European Committee on Antimicrobial Susceptibility Testing ([50]). Briefly, a series of twofold dilutions in MHB of each compound were made in a 96-well plate, with final concentrations ranging from 50 to 0.39 µg/mL in 100 µL final volume per well. A hundred microliters of 1:100 dilution of an overnight culture of the correspondent bacteria in MHB was added to each well. Plates were incubated for 18 hours at 37°C. MIC was recorded as the lowest concentration where no growth was detected as measured by optical density at 600 nm (OD600) using Spectramax M5 (Molecular Devices LLC, San Jose, CA, USA). […] Wells containing bacteria with or without 1% DMSO and medium alone were included as controls in every plate.
# [2] = tested on: Enterococcus faecalis vanA (strain E0155); experiment: MIC (microdilution) against E. faecalis; details: for MIC: Enterococcus faecalis, read-out: MIC E. faecalis; for MIC E. faecalis: Table ST1
# Procedure: as §3, §4
# [3] = tested on: Pseudomonas aeruginosa ATCC 27853; experiment: MIC (microdilution) against P. aeruginosa; details: for MIC: Pseudomonas aeruginosa; for MIC P. aeruginosa: Table ST1
# Procedure: as §3, §4
# [4] = tested on: Escherichia coli ATCC 25922; experiment: MIC (microdilution) against E. coli; details: for MIC: Escherichia coli; for MIC E. coli: Table ST1
# Procedure: as §3, §4
# [5] = tested on: Escherichia coli JW5503 (ΔtolC); experiment: MIC (microdilution) against E. coli JW5503; details: for MIC: Escherichia coli, read-out: MIC E. coli JW5503; for MIC E. coli JW5503: Table ST1, ΔtolC mutant
# Excerpt: We also tested the inhibitory activity of compounds in two different E. coli mutants: (i) E. coli JW5503 that lacks TolC efflux pumps and (ii) E. coli D21f2 that has a defective LPS inner core increasing permeability of the outer membrane. E. coli D21f2 has a slightly higher susceptibility to DPP compounds than E. coli ATCC25922.
# as §3, §4
# S. aureus str. Newman = experiment: Membrane permeability using SYTOX-Green, flow cytometry; details: for % FITC stained bacteria 0.5 xMIC: 0.5× MIC; for % FITC stained bacteria 2 xMIC: 2× MIC; for Membrane damage: if considered to cause membrane damage to S. aureus
# Procedure: S. aureus str. Newman was grown to exponential phase (OD600 = 0.4) in MHB media. […] Nisin (Sigma-Aldrich) and novobiocin (Sigma-Aldrich) were used as positive and negative controls for membrane permeabilization, and stained and unstained untreated controls were also included in each assay. After exposure, samples were centrifuged at 4,000 r.p.m. for 5 min and resuspended in PBS. Bacteria were dyed by adding the fluorescent nuclear stain SYTOX Green (Molecular Probes, Invitrogen) to a final concentration of 0.5 µM and incubating for 5 min in the dark. Samples were centrifuged again and resuspended with PBS to remove unbound stain. Three hundred microliters of each sample was transferred to a clean well in a 96-well clear-bottom plate (Corning Incorporated). Fluorescence was measured in CytoFLEX flow cytometer (Beckman Coulter, Brea, CA, USA) using the green (FITC) channel with the excitation wavelength at 488 nm. Overlay histograms were created with CytExpert Software (Beckman Coulter, Brea, CA, USA).
# [6] = ATCC27853, Table 1, read-out: MIC P. aeruginosa
# [7] = ATCC25922, Table 1, read-out: MIC E. coli
# [8] = ATCC27853, read-out: MIC P. aeruginosa
# [9] = ATCC25922, read-out: MIC E. coli
Compound,CC50 at 24 h (in vitro),Selectivity Index (HEK293 cells),MIC [1] [mg/L],MIC E. faecium [1] [mg/L],MIC [2] [mg/L],MIC E. faecalis [2] [mg/L],"MIC [3, 6] [mg/L]",MIC P. aeruginosa [3] [mg/L],"MIC [4, 7] [mg/L]",MIC E. coli [4] [mg/L],MIC [5] [mg/L],MIC E. coli JW5503 [5] [mg/L],% FITC stained bacteria 0.5 xMIC (S. aureus str. Newman; 5 min exposure) [%],"% FITC stained bacteria 1 xMIC (S. aureus str. Newman; 1× MIC, 5 min exposure) [%]",% FITC stained bacteria 2 xMIC (S. aureus str. Newman; 5 min exposure) [%],Membrane damage (S. aureus str. Newman),LC20 (HEK293 cells) [mg/L],"Loss of membrane integrity (S. aureus str. Newman; 1× MIC, 5 min exposure)","MIC [3, 8] [mg/L]","MIC [4, 9] [mg/L]"
COc1ccc(-c2[nH]nc(C(F)(F)F)c2-c2ccccc2)c(O)c1 [DPP-2],7.34 µg/mL and 21.9 µM,0.60,25,25,25,25,> 250,>250,> 250,>250,6.25,6.25,49.81,54.03,63.56,YES,–,–,–,–
Oc1ccc(-c2n[nH]c(C(F)(F)F)c2-c2ccc(Cl)cc2)c(O)c1 [DPP-5],12.9 µg/mL and 36.3 µM,4.13,12.5,12.5,12.5,12.5,> 250,>250,50,50,3.12,3.12,13.40,13.42,41.29,MILD,5,did not cause significant loss of membrane integrity,–,–
COc1ccc(-c2[nH]nc(C(F)(F)F)c2-c2ccc(Cl)cc2)c(O)c1 [DPP-6],14.3 µg/mL and 38.6 µM,4.58,6.25,6.25,6.25,6.25,> 250,>250,> 250,>250,3.12,3.12,36.93,44.48,48.91,YES,6,–,–,–
CCOc1ccc(-c2[nH]nc(C(F)(F)F)c2-c2ccc(Cl)cc2)c(O)c1 [DPP-7],10.8 µg/mL and 28.5 µM,3.47,3.12,3.12,3.12,3.12,> 250,>250,> 250,>250,3.12,3.12,42.44,50.30,54.59,YES,–,–,–,–
COc1ccc(-c2c(C(F)(F)F)n[nH]c2-c2ccc(O)cc2O)cc1 [DPP-12],31.7 µg/mL and 90.7 µM,2.54,50,50,50,50,–,>250,–,>250,12.5,12.5,9.04,24.16,29.11,MILD,–,–,> 250,> 250
COc1ccc(-c2c(C(F)(F)F)n[nH]c2-c2ccc(OC)cc2O)cc1 [DPP-13],29.9 µg/mL and 82.1 µM,2.39,25,25,25,25,–,>250,–,>250,12.5,12.5,35.10,45.40,45.44,YES,–,–,> 250,> 250

# Source: publication PMC11302729, “Repurposing Hsp90 inhibitors as antimicrobials targeting two-component systems identifies compounds leading to loss of bacterial membrane integrity” (Microbiology Spectrum, 2024)
